Assay results reported in patent publication US10059733B2 (NUCORION PHARMACEUTICALS, INC., priority 2014, dated 2018).
Like-named read-outs stand apart in the source and are kept apart here.

How the values were obtained:
[1] = TC50 assay in Huh7 cells, 48 h (CellTiter 96); conditions: human
Protocol: (§1) Huh7 cells were maintained at 37° C. in a humidified atmosphere at 5% CO2 in DMEM containing 10% FBS. […] The cells were then treated with each compound at concentrations ranging from 500 μM to 0 μM in triplicate in DMEM media containing 2% FBS and 0.5% DMSO and without phenol red. After 48 h of treatment at 37° C., the relative number of living cells in each well was determined by using the CellTiter 96 system (Promega) according to the manufacturer's instructions. The 3-(4,5-dimethylthiazol-2-yl)-5-(3-carboxymethoxyphenyl)-2-(4-sulfophenyl)-2H-tetrazolium (MTS) and phenazine methosulfate (PMS) reagents were added to each well of the 96-well plate and the plate was incubated at 37° C. for approximately 2 h. The absorbance at 490 nm and 650 nm in each well was then determined by using a Flexstation 3 microplate reader ([…]). The absorbance determined at 650 nm was then subtracted from the absorbance determined at 490 nm to correct for light scattering. The corrected absorbance values representing the relative number of live cells in each condition were then plotted as a function of compound concentration, and the data were then fit to the following sigmoidal Emax equation by using Kaleidagraph: y=(Emax*x^Slope)/(TC50^Slope+x^Slope) where y is the relative corrected absorbance value, Emax is the maximum relative inhibition, x is the compound concentration, TC50 is the concentration of the compound at which the total cell population is reduced by 50%, and Slope is the slope of the curve.
The data in Table 1 were determined for cells exposed to drug for 48 h. The IC50 is the concentration of each compound necessary to inhibit the replication of the HCV luciferase replicon to 50%. “TC50,” refers to toxic concentration necessary to reduce the cell population by 50%. All compounds were purified by HPLC.

HCV luciferase replicon [2] = test: IC50 assay: inhibition of the HCV luciferase replicon in Huh7 cells; assay type: cell-based; conditions: for IC50: Hepatitis C virus; for Therapeutic Index (TC50/IC50): TC50 in Huh7 / IC50 HCV replicon, 48 h
Protocol: After 48 h of treatment at 37° C., the media in each well was removed, the cells were gently washed once with phosphate buffered saline (PBS) and subsequently lysed by the addition of Glo Lysis Buffer (Promega). After a 15 min incubation at room temperature to allow for complete cell lysis, Bright-Glo luciferase reagent (Promega) was added to each well and the relative luciferase activity in each well was determined by using a Glowmax 96 microplate luminometer (Promega).
IC50 values determined using the above methods for inhibition of the HCV luciferase replicon in Huh7 cells are set forth in Table 1.
All compounds were purified by HPLC.

BxPC3 = test: TC50 assay with human cancer cell lines, 96 h: BxPC3; assay type: cell-based
Protocol: (§3) Huh7 cells were maintained at 37° C. in a humidified atmosphere at 5% CO2 in DMEM containing 10% FBS. […] The cells were then treated with each compound at concentrations ranging from 500 μM to 0 μM in triplicate in DMEM media containing 2% FBS and 0.5% DMSO and without phenol red. After 48 h of treatment at 37° C., the relative number of living cells in each well was determined by using the CellTiter 96 system (Promega) according to the manufacturer's instructions. The 3-(4,5-dimethylthiazol-2-yl)-5-(3-carboxymethoxyphenyl)-2-(4-sulfophenyl)-2H-tetrazolium (MTS) and phenazine methosulfate (PMS) reagents were added to each well of the 96-well plate and the plate was incubated at 37° C. for approximately 2 h. The absorbance at 490 nm and 650 nm in each well was then determined by using a Flexstation 3 microplate reader (Molecular Dynamics). The absorbance determined at 650 nm was then subtracted from the absorbance determined at 490 nm to correct for light scattering. The corrected absorbance values representing the relative number of live cells in each condition were then plotted as a function of compound concentration, and the data were then fit to the following sigmoidal Emax equation by using Kaleidagraph: y=(Emax*x^Slope)/(TC50^Slope+x^Slope) where y is the relative corrected absorbance value, Emax is the maximum relative inhibition, x is the compound concentration, TC50 is the concentration of the compound at which the total cell population is reduced by 50%, and Slope is the slope of the curve.
(§4) Huh7, HEPG2, HEK293, MCF-7 and BxPC3 cell lines were maintained at 37° C. in a humidified atmosphere at 5% CO2 in DMEM containing 10% FBS. […] The cells were then treated with each compound at concentrations ranging from 500 μM to 0 μM in triplicate in DMEM media containing 2% FBS and 0.5% DMSO and without phenol red.

MCF-7 = test: TC50 assay with human cancer cell lines, 96 h: MCF-7; assay type: cell-based
Protocol: as §3, §4

HEK293 = test: TC50 assay with human cancer cell lines, 96 h: HEK293; assay type: cell-based
Protocol: as §3, §4

RPK9 cells = test: TC50 assay in gemcitabine resistant (dCK deficient) RPK9 cells, 48 h; conditions: read-out: TC50 (μM) in RPK9 cells at 48 hr
Protocol: as §1
(§2) PK9 and RPK9 cells were maintained at 37° C. in a humidified atmosphere at 5% CO2 in Roswell Park Memorial Institute (RPMI) media containing 10% FBS. […] The cells were then treated with each compound at concentrations ranging from […] to 0 μM in triplicate in RPMI media containing 2% FBS and 0.5% DMSO and without phenol red. […] The RPK9 cells were derived from the parental PK9 cell line, and are deficient for dCK activity due to the partial deletion of the dCK gene.

Huh7 = test: TC50 assay with human cancer cell lines, 96 h: Huh7; assay type: cell-based
Protocol: as §3, §4

PK9 cells = test: TC50 assay in PK9 cells, 48 h; conditions: Homo sapiens, PK9, 48 h, read-out: TC50 (μM) in PK9 cells at 48 hr
Protocol: as §1, §2

HEPG2 = test: TC50 assay with human cancer cell lines, 96 h: HEPG2; assay type: cell-based; conditions: HepG2, 96 h, read-out: TC50 HEPG2 (μM)
Protocol: as §3, §4

HCV luciferase replicon [3] = test: Isobologram analysis of synergism with antiviral compound in HCV luciferase replicon; assay type: cell-based
Protocol: Isobologram analysis was conducted to assess the potential synergistic interaction of representative disclosed compounds with representative antiviral compounds. The isobolgram analysis was conducted as previously described by Chou and Talalay (see Chou T. C. and Talalay P. “Analysis of combined drug effects: a new look at a very old problem.” Trends Pharmacol Sci 1983; 4:450-4; and Chou T. C. and Talalay P. “Quantitative analysis of dose-effect relationships: the combined effects of multiple drugs or enzyme inhibitors.” Adv Enzyme Regul 1984; 22:27-55; both of which are incorporated herein by reference in their entirety). The definitions of synergism are those described by Chou (see Chou, T. C. (2006) Theoretical basis, experimental design, and computerized simulation of synergism and antagonism in drug combination studies. Pharmacol Rev. 58(3):621-81, which is incorporated herein by reference in its entirety).
In the synergism studies described herein, the antiviral compound shown in Table 6 was assessed in combination with a representative disclosed compound, Compound 1.

[4] = Huh-7, Huh7 cells containing HCV luciferase replicon, 48 h exposure, read-out: IC50
[5] = BXPC-3, 96 h, read-out: TC50 BxPC3 (μM)
[6] = MCF7, 96 h, read-out: TC50 MCF-7 (μM)
[7] = HEK293, 96 h, read-out: TC50 HEK293 (μM)
[8] = Huh-7, 96 h, read-out: TC50 Huh7 (μM)

| SMILES | CC50 at 48 h ([1]; Huh7 cells) [µM] | IC50 (HCV luciferase replicon [2]; [4]) [µM] | Therapeutic Index (TC50/IC50) (HCV luciferase replicon [2]) | also measured |
| --- | --- | --- | --- | --- |
| O=C(Nc1ccn(C2O[C@H](CO)[C@@H](O)C2(F)F)c(=O)n1)c1ccc2c(c1)CCC2 (stereo partly drawn) [Compound 12, N-(1-((4R,5R)-3,3-difluoro-4-hydroxy-5-(hydroxymethyl)tetrahydrofuran-2-yl)-2-oxo-1,2-dihydropyrimidin-4-yl)-2,3-dihydro-1H-indene-5-carboxamide] | 378 | 0.0586 | 6,451 |  |
| CC(C)OC(=O)[C@H](C)N[P@](=O)(OC[C@H]1O[C@@H](n2ccc(NC(=O)c3ccc4c(c3)OCO4)nc2=O)C(F)(F)C1O)Oc1ccccc1 (stereo in doubt) [Compound 4] |  |  | 134 | CC50 at 48 h [1]: 41.5 ± 5.6 µM; CC50 (BxPC3; [5]): 4.05 µM; CC50 (MCF-7; [6]): 1.93 µM; CC50 (HEK293; [7]): 2.7 µM; CC50 (RPK9 cells): 20.3 ± 3.9 µM; CC50 (Huh7; [8]): 5.5 µM; IC50 (HCV luciferase replicon [2]; Huh-7, 48 h): 0.309 ± 0.045 µM; CC50 (PK9 cells): 16 ± 4.8 µM; CC50 (HEPG2): 3.22 µM |
| O=C(Nc1ccn(C2O[C@H](CO)[C@@H](O)C2(F)F)c(=O)n1)C1Cc2ccccc2C1 (stereo partly drawn) [Compound 11, N-(1-((4R,5R)-3,3-difluoro-4-hydroxy-5-(hydroxymethyl)tetrahydrofuran-2-yl)-2-oxo-1,2-dihydropyrimidin-4-yl)-2,3-dihydro-1H-indene-2-carboxamide] | > 500 | 0.01 | >50,000 |  |
| O=C(Nc1ccn(C2O[C@H](CO)[C@@H](O)C2(F)F)c(=O)n1)c1ccc2c(c1)OCO2 (some centres unmarked) [Non-phosphorylated analog of Compound 4] | 473 ± 74 | 0.0598 ± 0.0084 | 7910 | CC50 (BxPC3; BXPC-3, 96 h of treatment, read-out: TC50 BxPC3): 0.72 µM; CC50 (MCF-7; MCF7, 96 h of treatment, read-out: TC50 MCF-7): 1.19 µM; CC50 (HEK293; HEK293, 96 h of treatment, read-out: TC50 HEK293): 4.09 µM; CC50 (RPK9 cells): > 500 µM; CC50 (Huh7; Huh-7, 96 h of treatment, read-out: TC50 Huh7): 7.04 µM |
| COc1ccc2cc(C(=O)Nc3ccn(C4O[C@H](CO)[C@@H](O)C4(F)F)c(=O)n3)ccc2c1 (stereo partly drawn) [Compound 10, N-(1-((4R,5R)-3,3-difluoro-4-hydroxy-5-(hydroxymethyl)tetrahydrofuran-2-yl)-2-oxo-1,2-dihydropyrimidin-4-yl)-6-methoxy-2-naphthamide] | 168 | 0.0935 | 1,796 |  |
| O=C(Nc1ccn(C2O[C@H](CO)[C@@H](O)C2(F)F)c(=O)n1)c1ccc2c(c1)CCCC2 (stereo partly drawn) [Compound 5, N-(1-((4R,5R)-3,3-difluoro-4-hydroxy-5-(hydroxymethyl)tetrahydrofuran-2-yl)-2-oxo-1,2-dihydropyrimidin-4-yl)-5,6,7,8-tetrahydronaphthalene-2-carboxamide] | 132 | 0.086 | 1,535 |  |
| O=C(Nc1ccn(C2O[C@H](CO)[C@@H](O)C2(F)F)c(=O)n1)c1ccc2cc(Br)ccc2c1 (stereo partly drawn) [Compound 6, 6-bromo-N-(1-((4R,5R)-3,3-difluoro-4-hydroxy-5-(hydroxymethyl)tetrahydrofuran-2-yl)-2-oxo-1,2-dihydropyrimidin-4-yl)-2-naphthamide] | 74 | 0.185 | 400 |  |
| O=C(Nc1ccn(C2O[C@H](CO)[C@@H](O)C2(F)F)c(=O)n1)c1ccc2ccccc2c1 (stereo partly drawn) [Compound 7, N-(1-((4R,5R)-3,3-difluoro-4-hydroxy-5-(hydroxymethyl)tetrahydrofuran-2-yl)-2-oxo-1,2-dihydropyrimidin-4-yl)-2-naphthamide] | 125 | 0.126 | 992 |  |
| CCCC(CCC)C(=O)Nc1ccn([C@@H]2O[C@@H]3CO[P@@](=O)(OC(C)C)O[C@H]3C2(F)F)c(=O)n1 [Compound 2, N-(1-((2S,4aR,6R,7aR)-7,7-difluoro-2-isopropoxy-2-oxidotetrahydro-4H-furo[3,2-d][1,3,2]-dioxaphosphinin-6-yl)-2-oxo-1,2-dihydropyrimidin-4-yl)-2-propylpentanamide] | 175 ± 23 | 7.48 | 23.4 | CC50 (RPK9 cells): 537 ± 55 µM; CC50 (PK9 cells): 716 ± 104 µM |
| COC(=O)N[C@H](C(=O)N1CCC[C@H]1c1ncc(-c2ccc(-c3ccc(-c4cnc([C@@H]5CCCN5C(=O)[C@@H](NC(=O)OC)C(C)C)[nH]4)cc3)cc2)[nH]1)C(C)C [BMS-790052, carbamic acid, N,N′-[[1,1′-biphenyl]-4,4′-diylbis[1H-imidazole-5,2-diyl-(2S)-2,1-pyrrolidinediyl[(1S)-1-(1-methylethyl)-2-oxo-2,1-ethanediyl]]]bis-, C,C′-dimethyl ester, reference compound] |  |  |  | Combination Index (HCV luciferase replicon [3]; Compound 1 0.0 nM, BMS-790052 0.020 nM): 1.000; concentration of the single agent on the IC50 isobologram (Combination Index 1.000) (HCV luciferase replicon [3]; compound alone, other compound 0 nM): 0.020 nM |
| O=C(Nc1ccn(C2O[C@H](CO)[C@@H](O)C2(F)F)c(=O)n1)c1ccc2c(c1)C(=O)c1ccccc1C2=O (stereo partly drawn) [Compound 8, N-(1-((4R,5R)-3,3-difluoro-4-hydroxy-5-(hydroxymethyl)tetrahydrofuran-2-yl)-2-oxo-1,2-dihydropyrimidin-4-yl)-9,10-dioxo-9,10-dihydroanthracene-2-carboxamide] | 249 | 0.0128 | 19,450 |  |
| O=C(Nc1ccn(C2O[C@H](CO)[C@@H](O)C2(F)F)c(=O)n1)c1cccc2c1CCCC2 (stereo partly drawn) [Compound 9, N-(1-((4R,5R)-3,3-difluoro-4-hydroxy-5-(hydroxymethyl)tetrahydrofuran-2-yl)-2-oxo-1,2-dihydropyrimidin-4-yl)-5,6,7,8-tetrahydronaphthalene-1-carboxamide] | 92 | 0.161 | 571 |  |
| CC(C)OC(=O)[C@H](C)N[P@](=O)(OC[C@H]1O[C@@H](n2ccc(N)nc2=O)C(F)(F)C1O)Oc1ccccc1 (some centres unmarked) [Phosphorylated analog of Gemcitabine] |  |  |  | CC50 (BxPC3; [5]): 0.76 µM; CC50 (MCF-7; [6]): 0.115 µM; CC50 (HEK293; [7]): 0.38 µM; CC50 (RPK9 cells): 21 µM; CC50 (Huh7; [8]): 4.15 µM; CC50 (PK9 cells): 11.2 µM; CC50 (HEPG2): 0.89 µM |
| CC(C)OC(=O)[C@H](C)NP(=O)(OC[C@H]1OC(n2ccc(NC(=O)C3Cc4ccccc4C3)nc2=O)C(F)(F)[C@@H]1O)Oc1ccccc1 (stereo in doubt) [Compound 13, (2S)-isopropyl 2-(((R)-(((2R,3R)-5-(4-(2,3-dihydro-1H-indene-2-carboxamido)-2-oxopyrimidin-1(2H)-yl)-4,4-difluoro-3-hydroxytetrahydrofuran-2-yl)methoxy)(phenoxy)phosphoryl)amino)-propanoate] |  |  | 684 | CC50 at 48 h [1]: 236 µM; IC50 (HCV luciferase replicon [2]; Huh-7, 48 h): 0.345 µM |
